Measured values published in patent US12416639B2, “Reagents and methods for detecting protein lysine lactylation” (Jingjie PTM Biolab (Hangzhou) Co., Inc, priority 2018, dated 2025).

Key:
[1] = system: MCF-7 cells; assay: Intracellular lactate in MCF-7 cells (lactate colorimetric kit); assay type: cell-based, human; settings: 24 hours
Procedure: (§1) Intracellular lactate (a and d) and histone Kla levels (b and c) were measured from MCF-7 cells cultured in different glucose concentrations or different 2-DG concentrations in the presence of 25 mM glucose for 24 hours. Lactate was measured by a lactate colorimetric kit; n=3 biological replicates; statistical significance was determined using one-way ANOVA followed by Sidak's multiple comparisons test. Immunoblots was carried out using acid-extracted histone samples. The pan anti-Kla and anti-Kac immunoblots indicate molecular weights between 10 kD and 15 kD. e, Regulation of glycolysis and lactate production by diverse metabolic modulators. f, Intracellular lactate levels were measured in MCF-7 cells treated with indicated glycolysis modulators for 24 hours. N=3 biological replicates; statistical significance was determined using one-way ANOVA followed by Dunnett's multiple comparisons test. g-i, Immunoblots of acid extracted histones (Rotenone and DCA) or whole cell lysates (Oxamate) from MCF-7 cells in response to different glycolysis modulators. j, Intracellular lactate levels were measured in MCF-7 cells in response to hypoxia. N=4 biological replicates; statistical significance was determined using unpaired t test (Two-tailed). k, Immunoblots of acid extracted histones from MCF-7 cells under hypoxia (1% oxygen) for indicated time points. a, d, f, j, Graphs show mean with s.e.m. b, c, g, h, i, k, Data represent three independent experiments. […]

[2] = system: MCF-7 cells; assay: Histone Kla levels in MCF-7 cells by immunoblot (pan anti-Kla); assay type: cell-based, human
Procedure: as §1

[3] = system: MCF-7 cells; assay: U-13C6 glucose labeling followed by MS/MS of histone Kla and Kac in MCF-7 cells; assay type: cell-based, human
Procedure: The peptide samples were loaded onto a home-made capillary column (10 cm length×[…], 3 μm particle size, Dr. Maisch GmbH, Ammerbuch, Germany) connected to an EASY-nLC 1000 system (Thermo Fisher Scientific, Waltham, MA). Peptides were separated and eluted with a gradient of 2% to 90% HPLC buffer B (0.1% formic acid in acetonitrile, v/v) in buffer A (0.1% formic acid in water, v/v) at a flow rate of 200 nL/min over 60 min (34 min for coelution studies). The eluted peptides were then ionized and analyzed by a Q-Exactive mass spectrometer (Thermo Fisher Scientific, Waltham, MA). Full MS was acquired in the Orbitrap mass analyzer over the range m/z 300-1400 with a resolution of 70,000 at m/z 200. The 12 most intense ions with charge ≥2 were fragmented with normalized collision energy of 27 and tandem mass spectra were acquired with a mass resolution of 17500 at m/z 200.
MCF-7 cells were cultured in DMEM high glucose media plus 10% FBS. To be labeled by isotopic lactate, cells were treated with 10 mM of ^13C3 sodium L-lactate for 24 hours. To be labeled by isotopic glucose, cells were switched to DMEM No-Glucose media (Gibco) for 24 hours, followed by supplementation with 25 mM of U-^13C6 D-glucose and continued culturing for three passages. Histones were extracted, digested with trypsin, immunoprecipitated using a pan anti-Kla antibody, and analyzed by HPLC/MS/MS as described above.

[4] = system: MCF-7 cells; assay: Hypoxia-induced lactate production and histone Kla; assay type: cell-based, human; settings: hypoxia (1% oxygen); cell line not given
Procedure: as §1, with “hypoxia.” for “hypoxia. N=4 biological replicates; statistical significance was determined using unpaired t test (Two-tailed). k, Immunoblots of acid extracted histones from MCF-7 cells under hypoxia (1% oxygen) for indicated time points. a, d, f, j, Graphs show mean with s.e.m. b, c, g, h, i, k, Data represent three independent experiments.”

[5] = target: T1, recombinant chromatin (p53- and p300-dependent) (Homo sapiens, UniProt Q09472); assay: Cell-free recombinant chromatin-templated histone modification and transcription assay; assay type: biochemical; settings: acetyl-CoA replaced by L-lactyl-CoA
T1 construct: made in house
Procedure: To examine the potential activity of p300 as a histone Kla writer in cells, we over-expressed p300 in HEK293T cells and observed a modest increase in histone Kla levels. In contrast, p300 deletion in HCT116 and HEK293T cells decreased histone Kla levels.
Purification of recombinant proteins and chromatin assembly were performed as previously described (Tang et al., Cell 154, 297-310, doi:10.1016/j.cell.2013.06.027 (2013)). The chromatin-templated histone modification and transcription assays were as described previously (Tang et al., Cell 154, 297-310, doi:10.1016/j.cell.2013.06.027 (2013)), except that lactyl-CoA was used in place of acetyl-CoA and [α-32P] CTP was used in place of [α-32P]-UTP. The H3KR, H4KR, H2AKR, and H2BKR histone mutants were the same as previously described (Tang et al., Cell 154, 297-310, doi:10.1016/j.cell.2013.06.027 (2013)). Histone modifications were monitored by immunoblot and transcription products were monitored by autoradiography as described (Tang et al., Cell 154, 297-310, doi:10.1016/j.cell.2013.06.027 (2013)).

[6] = system: BMDM cells; assay: M1 polarization (LPS+IFNγ) of BMDM cells: lactate, histone Kla, gene expression, ChIP-qPCR; assay type: cell-based, mouse
Procedure: Intracellular lactate levels were measured using a lactate colorimetric kit (a) and global histone Kla levels were measured by immunoblots (b) 24 h-post M1 polarization. c, Gene expression were analyzed by RT-qPCR at indicated time points after M1 polarization. a-c, N=3 biological replicates. d, H3K18la occupancy was analyzed by ChIP-qPCR 24 h-post M1 polarization. Data represent three technical replicates from pooled samples. e-h, Exogeneous lactic acid (25 mM) was added to BMDM cells 4 h post-M1 polarization (LPS+IFNγ), and cells were collected at indicated time points post-M1 polarization for intracellular lactate measurement (e), histone Kla immunoblot analysis (f), gene expression analysis (g) and H3K18la occupancy analysis by ChIP-qPCR (h). e, N=3 biological replicates, f, Data represent three independent experiments. g, RPKM: Reads Per Kilobase of transcript per Million mapped reads (RPKM). N=4 biological replicates. h, Data represent three technical replicates from pooled samples. a, c, d, e, g, h, Graphs show mean with s.e.m; statistical significance was determined using Multiple t tests corrected using Holm-Sidak method (a, c, e, g).
All animal use and experiments performed were approved by Institutional Animal Care and Use Committee (ACUP #72209) at the University of Chicago. Ldha^fl/fl mice (Jackson laboratory, 030112) and LysMcre mice (Jackson laboratory, 004781) were used to generate LysMcre^+/−Ldha^fl/fl and littermate control LysMcre^−/− Ldha^fl/fl mice. The following primers were used for genotyping: Ldha forward: […] (SEQ ID NO: 88) and Ldha reverse: […] (SEQ ID NO: 89). LysMcre: […] (SEQ ID NO: 90), LysM Common: […] (SEQ ID NO: 91) and LysM WT: […] (SEQ ID NO: 92). Macrophages were derived from bone marrow of 8-week male C57BL/6 mice following the published procedure. To induce an M1 or M2 phenotype, BMDM cells were stimulated with 5 ng/ml of LPS and 12 ng/ml of IFNγ or 20 ng/ml of interleukin 4, for 24 hours or the indicated time. To infect BMDM cells with bacteria, overnight cultures of E. coli, A. baumannii, or P. aeruginosa were diluted in RPMI-1640 and added to BMDM cells in 6-well plates at 2 and 20 multiplicity of infection. A control plate was either infected with paraformaldehyde-killed bacteria or treated with 5 ng/mL lipopolysaccharide (LPS) in the absence of bacteria. The plates were centrifuged at 2170 rpm for 30 min to promote infection, followed by a 30 min incubation in a humidified incubator at 37° C. under 5% CO2. To kill extracellular bacteria, the medium overlying the confluent cell monolayer was replaced with fresh media containing gentamicin at 100 μg/mL and the plates were further incubated for 1 h. Following incubation, media were removed from infected cells and replaced with fresh media containing 25 μg/mL of gentamicin. For consistency, LPS-treated cells and cells infected with dead bacteria were also treated with gentamicin. Cells were cultured for 24 h before lysis. Allocation of BMDM cells into different treated groups were randomized and not blinded.
Total RNA was extracted from BMDM cells activated as indicated using a RNeasy Plus Mini Kit (74134, Qiagen, Hilden, Germany). Two to four micrograms of total RNA were used as starting material to prepare libraries using Illumina TruSeq Stranded mRNA Library Prep Kit Set A (RS-122-2101, Illumina, San Diego, CA). The libraries' size was selected by using the Agencourt AMPure XP beads (A63882, Beckman Coulter, Brea, CA), with average size of 400 bp. The libraries were sequenced using Illumina HiSeq 4000 (pair end 50 bp).
Native ChIP was carried out following the published protocol (Cuddapah et al., Cold Spring Harb Protoc 2009, pdb prot5237, doi:10.1101/pdb.prot5237 (2009)) with spiked-in for normalization purpose. Spike-in was carried out according to vendor protocols (#61686, Active motif, Carlsbad, CA). […]

[7] = system: BMDMs; assay: U-13C6 glucose labeling of histone Kla and Kac in BMDMs during M1 polarization; assay type: cell-based, mouse
Text: All animal use and experiments performed were approved by Institutional Animal Care and Use Committee (ACUP #72209) at the University of Chicago. Ldha^fl/fl mice (Jackson laboratory, 030112) and LysMcre mice (Jackson laboratory, 004781) were used to generate LysMcre^+/−Ldha^fl/fl and littermate control LysMcre^−/− Ldha^fl/fl mice. The following primers were used for genotyping: Ldha forward: […] (SEQ ID NO: 88) and Ldha reverse: […] (SEQ ID NO: 89). LysMcre: […] (SEQ ID NO: 90), LysM Common: […] (SEQ ID NO: 91) and LysM WT: […] (SEQ ID NO: 92). Macrophages were derived from bone marrow of 8-week male C57BL/6 mice following the published procedure. To induce an M1 or M2 phenotype, BMDM cells were stimulated with 5 ng/ml of LPS and 12 ng/ml of IFNγ or 20 ng/ml of interleukin 4, for 24 hours or the indicated time. To infect BMDM cells with bacteria, overnight cultures of E. coli, A. baumannii, or P. aeruginosa were diluted in RPMI-1640 and added to BMDM cells in 6-well plates at 2 and 20 multiplicity of infection. […]
The peptide samples were loaded onto a home-made capillary column (10 cm length×[…], 3 μm particle size, Dr. Maisch GmbH, Ammerbuch, Germany) connected to an EASY-nLC 1000 system (Thermo Fisher Scientific, Waltham, MA). […] The eluted peptides were then ionized and analyzed by a Q-Exactive mass spectrometer (Thermo Fisher Scientific, Waltham, MA). […]

[8] = M1 polarization, exogenous lactate
[9] = exogenous lactic acid 25 mM added 4 h post-M1 polarization

T1 sequence (Q09472 whole entry): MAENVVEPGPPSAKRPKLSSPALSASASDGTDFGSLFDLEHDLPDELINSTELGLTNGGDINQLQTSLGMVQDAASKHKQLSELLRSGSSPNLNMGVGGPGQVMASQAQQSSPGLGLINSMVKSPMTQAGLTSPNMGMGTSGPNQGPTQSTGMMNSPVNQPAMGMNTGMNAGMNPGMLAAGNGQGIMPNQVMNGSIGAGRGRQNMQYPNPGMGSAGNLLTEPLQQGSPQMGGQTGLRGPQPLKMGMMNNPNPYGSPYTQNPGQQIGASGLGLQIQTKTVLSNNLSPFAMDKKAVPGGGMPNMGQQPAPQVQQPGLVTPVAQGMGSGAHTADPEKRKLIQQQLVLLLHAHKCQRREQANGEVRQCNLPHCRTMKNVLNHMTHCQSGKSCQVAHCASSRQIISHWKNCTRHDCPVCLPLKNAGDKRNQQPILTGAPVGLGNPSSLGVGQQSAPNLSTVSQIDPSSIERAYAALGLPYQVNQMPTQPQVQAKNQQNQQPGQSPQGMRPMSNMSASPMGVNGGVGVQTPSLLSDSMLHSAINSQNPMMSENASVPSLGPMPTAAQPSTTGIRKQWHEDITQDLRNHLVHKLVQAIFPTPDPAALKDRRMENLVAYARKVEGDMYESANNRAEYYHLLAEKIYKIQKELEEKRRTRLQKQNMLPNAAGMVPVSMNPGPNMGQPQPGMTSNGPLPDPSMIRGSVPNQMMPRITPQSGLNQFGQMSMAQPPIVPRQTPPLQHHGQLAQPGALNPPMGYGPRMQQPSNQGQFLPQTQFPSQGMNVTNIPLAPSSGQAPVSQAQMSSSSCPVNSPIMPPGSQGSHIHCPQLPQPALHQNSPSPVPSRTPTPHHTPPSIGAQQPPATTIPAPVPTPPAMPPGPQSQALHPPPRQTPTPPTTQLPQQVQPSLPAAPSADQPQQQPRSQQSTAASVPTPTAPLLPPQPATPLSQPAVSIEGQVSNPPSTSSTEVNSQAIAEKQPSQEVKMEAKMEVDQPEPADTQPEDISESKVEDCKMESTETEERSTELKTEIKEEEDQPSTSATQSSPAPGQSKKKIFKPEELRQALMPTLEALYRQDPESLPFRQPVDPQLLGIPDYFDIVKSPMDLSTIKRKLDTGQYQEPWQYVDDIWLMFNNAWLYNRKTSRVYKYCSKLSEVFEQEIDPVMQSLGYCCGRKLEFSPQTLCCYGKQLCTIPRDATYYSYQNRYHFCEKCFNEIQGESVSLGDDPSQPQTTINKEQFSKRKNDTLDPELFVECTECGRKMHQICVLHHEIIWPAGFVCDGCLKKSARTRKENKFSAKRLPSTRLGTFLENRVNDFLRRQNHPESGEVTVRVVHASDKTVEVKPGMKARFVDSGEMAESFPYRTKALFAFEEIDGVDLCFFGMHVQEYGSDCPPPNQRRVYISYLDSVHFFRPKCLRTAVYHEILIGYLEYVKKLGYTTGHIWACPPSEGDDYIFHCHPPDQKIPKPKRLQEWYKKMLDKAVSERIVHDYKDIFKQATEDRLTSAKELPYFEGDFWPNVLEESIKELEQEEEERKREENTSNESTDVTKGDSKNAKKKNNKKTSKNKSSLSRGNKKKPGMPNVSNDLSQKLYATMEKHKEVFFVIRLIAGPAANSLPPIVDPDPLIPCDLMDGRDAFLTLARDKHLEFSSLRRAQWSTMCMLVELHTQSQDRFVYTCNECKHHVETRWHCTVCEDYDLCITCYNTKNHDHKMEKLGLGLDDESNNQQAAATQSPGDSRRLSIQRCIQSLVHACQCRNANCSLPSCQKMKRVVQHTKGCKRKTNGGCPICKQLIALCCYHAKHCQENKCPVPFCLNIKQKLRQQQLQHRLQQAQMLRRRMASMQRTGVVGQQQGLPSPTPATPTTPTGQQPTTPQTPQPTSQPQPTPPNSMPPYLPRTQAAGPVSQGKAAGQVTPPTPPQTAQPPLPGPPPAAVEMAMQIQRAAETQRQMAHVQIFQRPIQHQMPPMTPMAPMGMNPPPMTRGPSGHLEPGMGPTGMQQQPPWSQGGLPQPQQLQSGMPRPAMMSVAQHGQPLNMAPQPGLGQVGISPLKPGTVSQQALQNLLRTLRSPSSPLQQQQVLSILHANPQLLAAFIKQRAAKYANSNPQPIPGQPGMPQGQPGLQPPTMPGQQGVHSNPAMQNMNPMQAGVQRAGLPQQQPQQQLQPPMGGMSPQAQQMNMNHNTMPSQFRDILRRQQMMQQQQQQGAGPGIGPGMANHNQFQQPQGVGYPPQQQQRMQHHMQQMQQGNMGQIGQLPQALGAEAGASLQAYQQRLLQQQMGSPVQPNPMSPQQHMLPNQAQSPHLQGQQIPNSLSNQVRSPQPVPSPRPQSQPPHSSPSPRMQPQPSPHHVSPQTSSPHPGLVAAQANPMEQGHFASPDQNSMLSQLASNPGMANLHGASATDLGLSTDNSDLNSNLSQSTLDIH

Question: How did the “intracellular lactate levels / lactate production” value [1] turn out when O=CC[C@@H](O)[C@H](O)[C@H](O)CO [2-DG, 2-deoxy-D-glucose] was run?
Answer: Its value is “decreased”.

Question: What about the “histone Kla levels” value [2] of the same molecule?
Answer: The value was “decreased”.

Question: How did the “intracellular lactate levels / lactate production” value [1] turn out when O=C([O-])C(Cl)Cl.[Na+] [DCA, Sodium dichloroacetate] was run?
Answer: Its value is “decreased”.

Question: And the “histone Kla levels” value [2]?
Answer: Its value is “lowered”.

Question: And the “incorporation of 13C into histone Kac” value [3]?
Answer: Its value is “but not Kac was decreased”.

Question: And the “incorporation of 13C into histone Kla” value [3]?
Answer: Its value is “decreased”.

Question: What about the “induction of histone Kla by hypoxia” value [4] of the same molecule?
Answer: The value was “attenuated”.

Question: What about the “induction of lactate production by hypoxia” value [4] of the same molecule?
Answer: Its value is “attenuated”.

Question: Which results are given for C[C@H](O)C(=O)SCCNC(=O)CCNC(=O)[C@H](O)C(C)(C)COP(=O)(O)OP(=O)(O)OC[C@H]1O[C@@H](n2cnc3c(N)ncnc32)[C@H](O)[C@@H]1OP(=O)(O)O [L-lactyl-CoA]?
Answer: transcription ([5]; autoradiography): a corresponding effect on transcription; H3 and H4 lactylation ([5]; immunoblot): robust p53-dependent, p300-mediated H3 and H4 lactylation

Question: How did the “histone Kla levels” value [2] turn out when C[C@H](O)C(=O)O [lactate, L-(+)-lactic acid] was run?
Answer: The value was “elevated in a dose-dependent fashion”.

Question: And the “early pro-inflammatory gene expression” value [6, 8]?
Answer: Its value is “did not affect”.

Question: What about the “expression of other M2-like genes, such as Vegfa” value [6, 8] of the same molecule?
Answer: The value was “enhanced”.

Question: And the Arg1 expression [6, 9]?
Answer: The Arg1 expression was “induced”.

Question: And the intracellular lactate [6, 9]?
Answer: Its intracellular lactate is “increased”.

Question: What about the “histone Kla levels” value ([6]; exogenous lactic acid 25 mM added 4 h post-M1 polarization, immunoblot) of the same molecule?
Answer: Its value is “increased”.

Question: What about the “Kla levels at the Arg1 promoter” value ([6]; exogenous lactic acid 25 mM, H3K18la ChIP-qPCR) of the same molecule?
Answer: Its value is “induced”.

Question: C=C(C)[C@H]1Cc2c(ccc3c2O[C@@H]2COc4cc(OC)c(OC)cc4[C@@H]2C3=O)O1 [rotenone] was tested. Which “intracellular lactate levels / lactate production” value [1] did it give?
Answer: Its value is “increased”.

Question: What about the “histone Kla levels” value [2] of the same molecule?
Answer: The value was “increased”.

Question: For GNE-140, which “13C incorporation into histone Kla” value [7] is on record?
Answer: The value was “reduced”.
